Assay results published in US10280165B2, “Pyridopyrimidinones and methods of use thereof” (Genentech, Inc., priority 2015, dated 2019).

Target: HEK cells stably transfected with tetracycline inducible hNR1 and hNR2A (Homo sapiens (Human), UniProt Q05586+Q12879)
Test: Assay 1: Cell-Based Assay (cytosolic calcium, positive allosteric modulation)
Details: for Emax: HEK293, scaled relative to 100 μM L-glutamate maximal response (100%) and 0 μM L-glutamate (0%), with 30 μM glycine and 300 nM L-glutamate, read-out: Max %; for EC50: with 30 μM glycine and 300 nM L-glutamate (EC30), given for compounds reaching maximal response plateaus
Protocol: Assay 1: Cell-Based Assay
HEK cells stably transfected with tetracycline inducible hNR1 and hNR2A were seeded into clear bottom 384 well poly-D-lysine coated plates (2.5×10^4 cells per well) in Minimum Essential Media (MEM; without L-) including 7.5 μg mL doxycycline and 500 μM (+)-ketamine. The cells were incubated at 37° C. in 5% CO2 for 24 h. For measurement of changes in cytosolic calcium, the seeding media was removed and the cells incubated at 37° C. for 60 min with 1× Becton Dickinson Calcium Assay Kit reagent in Hanks Balanced Salt Solution (HBSS; w/o magnesium, including 1.8 mM calcium, 0.65 mg ml^−1 probenecid and 10 μM (+)-ketamine, pH 7.15) then allowed to equilibrate to rt for 30 min. Concentration-effect curves to Positive Allosteric Modulators (PAMs) were constructed by adding different concentrations (with 30 μM glycine and 300 nM L-glutamate (EC30)) to different wells in HBSS. Compounds were added after a 10 second baseline read and maximum level of relative fluorescence units (RFU) was measured over a 5 min period. Responses were scaled relative to 100 μM L-glutamate maximal response (100%) and 0 μM L-glutamate (0%). EC50 values are provided for compounds reaching maximal response plateaus, and the max % (EC50 (--)) only if no plateau was reached.
A four-parameter Hill equation was fitted to individual concentration-effect curves:
[formula] in which Y, S0, Sinf, AC50, n and c were effect, lower-asymptote, upper-asymptote, mid-point location, slope parameter, and concentration respectively.

Sequence of HEK cells stably transfected with tetracycline inducible hNR1 and hNR2A (Q12879 23-1464, other chains not shown): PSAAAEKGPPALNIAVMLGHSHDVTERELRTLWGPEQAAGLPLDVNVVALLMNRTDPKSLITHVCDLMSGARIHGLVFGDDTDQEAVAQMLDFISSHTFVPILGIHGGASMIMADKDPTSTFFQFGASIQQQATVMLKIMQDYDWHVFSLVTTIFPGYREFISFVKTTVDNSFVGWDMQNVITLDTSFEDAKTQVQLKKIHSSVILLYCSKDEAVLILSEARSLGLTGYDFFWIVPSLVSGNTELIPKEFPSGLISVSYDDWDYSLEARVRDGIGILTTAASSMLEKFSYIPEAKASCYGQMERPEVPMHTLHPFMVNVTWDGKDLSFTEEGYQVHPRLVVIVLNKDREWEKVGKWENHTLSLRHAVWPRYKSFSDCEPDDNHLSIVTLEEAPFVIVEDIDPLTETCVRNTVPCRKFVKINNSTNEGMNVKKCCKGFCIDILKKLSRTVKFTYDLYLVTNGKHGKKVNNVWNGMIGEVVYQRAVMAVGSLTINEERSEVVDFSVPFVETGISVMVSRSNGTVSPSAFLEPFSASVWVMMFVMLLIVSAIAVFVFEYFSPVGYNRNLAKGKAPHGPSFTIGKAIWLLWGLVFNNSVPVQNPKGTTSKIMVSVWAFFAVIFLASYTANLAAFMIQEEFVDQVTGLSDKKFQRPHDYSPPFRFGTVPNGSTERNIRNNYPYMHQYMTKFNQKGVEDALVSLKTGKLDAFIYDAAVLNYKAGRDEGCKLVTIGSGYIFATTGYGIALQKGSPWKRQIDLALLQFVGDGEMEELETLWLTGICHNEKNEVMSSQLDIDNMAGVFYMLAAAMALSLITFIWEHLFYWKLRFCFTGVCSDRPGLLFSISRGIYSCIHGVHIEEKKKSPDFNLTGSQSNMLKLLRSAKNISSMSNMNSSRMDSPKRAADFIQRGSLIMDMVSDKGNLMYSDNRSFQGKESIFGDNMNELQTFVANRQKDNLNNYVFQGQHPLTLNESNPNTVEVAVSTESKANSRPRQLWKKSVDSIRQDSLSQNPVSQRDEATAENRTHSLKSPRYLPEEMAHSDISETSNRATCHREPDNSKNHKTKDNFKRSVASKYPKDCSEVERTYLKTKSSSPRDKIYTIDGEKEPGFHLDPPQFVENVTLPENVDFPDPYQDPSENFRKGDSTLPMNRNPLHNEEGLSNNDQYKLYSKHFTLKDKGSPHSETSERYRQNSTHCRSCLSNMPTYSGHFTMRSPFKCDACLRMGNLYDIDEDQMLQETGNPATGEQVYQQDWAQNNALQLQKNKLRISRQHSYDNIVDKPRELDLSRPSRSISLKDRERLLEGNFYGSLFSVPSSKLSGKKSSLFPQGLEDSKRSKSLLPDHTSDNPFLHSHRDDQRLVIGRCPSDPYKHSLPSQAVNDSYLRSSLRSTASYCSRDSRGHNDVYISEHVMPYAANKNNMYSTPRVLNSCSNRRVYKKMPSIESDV

| Emax | EC50 | SMILES |
| --- | --- | --- |
| 135% | 126 nM | Cc1ccc2nc(Cn3nc(C(F)(F)F)cc3Cl)cc(=O)n2c1[C@@H]1C[C@H]1CO [Compound 36, 2-[[5-chloro-3-(trifluoromethyl)pyrazol-1-yl]methyl]-6-[(1R,2R)-2-(hydroxymethyl)cyclopropyl]-7-methyl-pyrido[1,2-a]pyrimidin-4-one] |
| 127% | – | Cc1ccc2nc(Cn3nc(C(F)(F)F)cc3Cl)cc(=O)n2c1[C@H]1C[C@@H]1CO [Compound 37, 2-[[5-chloro-3-(trifluoromethyl)pyrazol-1-yl]methyl]-6-[(1S,2S)-2-(hydroxymethyl)cyclopropyl]-7-methyl-pyrido[1,2-a]pyrimidin-4-one] |
| 144% | 39 nM | Cc1cc([C@@H]2C[C@H]2C#N)n2c(=O)cc(Cn3nc(C(F)(F)F)cc3Cl)nc2c1 [Compound 38, (1R,2R)-2-(2-[[5-chloro-3-(trifluoromethyl)pyrazol-1-yl]methyl]-8-methyl-4-oxo-pyrido[1,2-a]pyrimidin-6-yl]cyclopropanecarbonitrile] |
| 120% | 951 nM | Cc1cc([C@H]2C[C@@H]2C#N)n2c(=O)cc(Cn3nc(C(F)(F)F)cc3Cl)nc2c1 [Compound 39, (1S,2S)-2-[2-[[5-chloro-3-(trifluoromethyl)pyrazol-1-yl]methyl]-8-methyl-4-oxo-pyrido[1,2-a]pyrimidin-6-yl]cyclopropanecarbonitrile] |
| 148% | – | N#C[C@@H]1C[C@H]1c1cccc2nc(Cn3nc(C(F)(F)F)cc3Cl)cc(=O)n12 [Compound 40, (1R,2R)-2-[2-[[5-chloro-3-(trifluoromethyl)pyrazol-1-yl]methyl]-4-oxo-pyrido[1,2-a]pyrimidin-6-yl]cyclopropanecarbonitrile] |
| 111% | 2900 nM | N#C[C@H]1C[C@@H]1c1cccc2nc(Cn3nc(C(F)(F)F)cc3Cl)cc(=O)n12 [Compound 41, (1S,2S)-2-[2-[[5-chloro-3-(trifluoromethyl)pyrazol-1-yl]methyl]-4-oxo-pyrido[1,2-a]pyrimidin-6-yl]cyclopropanecarbonitrile] |
| 110% | 10600 nM | N#C[C@H]1C[C@@H]1c1c(Cl)ccc2nc(Cn3nc(C(F)(F)F)cc3Cl)cc(=O)n12 [Compound 42, (1S,2S)-2-[7-chloro-2-[[5-chloro-3-(trifluoromethyl)pyrazol-1-yl]methyl]-4-oxo-pyrido[1,2-a]pyrimidin-6-yl]cyclopropanecarbonitrile] |
| 145% | 269 nM | Cc1cc(C2CC2C#N)n2c(=O)cc(Cn3nc(Cl)cc3C(F)(F)F)nc2c1 (stereo not shown) [Compound 43, 2-[2-[[3-chloro-5-(trifluoromethyl)pyrazol-1-yl]methyl]-8-methyl-4-oxo-pyrido[1,2-a]pyrimidin-6-yl]cyclopropanecarbonitrile] |
| 158% | 227 nM | Cc1ccc2nc(Cn3nc(Cl)cc3C(F)(F)F)cc(=O)n2c1C1CC1C#N (stereo not shown) [Compound 44, 2-[2-[[3-chloro-5-(trifluoromethyl)pyrazol-1-yl]methyl]-7-methyl-4-oxo-pyrido[1,2-a]pyrimidin-6-yl]cyclopropanecarbonitrile] |
| 151% | – | N#C[C@@H]1C[C@H]1c1c(F)ccc2nc(Cn3nc(C(F)(F)F)cc3Cl)cc(=O)n12 [Compound 45, (1R,2R)-2-[2-[[5-chloro-3-(trifluoromethyl)pyrazol-1-yl]methyl]-7-fluoro-4-oxo-pyrido[1,2-a]pyrimidin-6-yl]cyclopropanecarbonitrile] |
| 107% | 3220 nM | N#C[C@H]1C[C@@H]1c1c(F)ccc2nc(Cn3nc(C(F)(F)F)cc3Cl)cc(=O)n12 [Compound 46, (1S,2S)-2-[2-[[5-chloro-3-(trifluoromethyl)pyrazol-1-yl]methyl]-7-fluoro-4-oxo-pyrido[1,2-a]pyrimidin-6-yl]cyclopropanecarbonitrile] |
| 200% | 178 nM | N#CC1CC1c1c(F)ccc2nc(Cn3nc(Cl)cc3C(F)(F)F)cc(=O)n12 (stereo not shown) [Compound 47, 2-[2-[[3-chloro-5-(trifluoromethyl)pyrazol-1-yl]methyl]-7-fluoro-4-oxo-pyrido[1,2-a]pyrimidin-6-yl]cyclopropanecarbonitrile] |
| 73% | 32400 nM | O=c1cc(Cn2nc(C(F)(F)F)cc2Cl)nc2ccccn12 [Compound 48, 2-[[5-chloro-3-(trifluoromethyl)pyrazol-1-yl]methyl]pyrido[1,2-a]pyrimidin-4-one] |
| 126% | 12300 nM | CC(=O)c1cccc2nc(Cn3nc(C(F)(F)F)cc3Cl)cc(=O)n12 [Compound 49, 6-acetyl-2-[[5-chloro-3-(trifluoromethyl)pyrazol-1-yl]methyl]pyrido[1,2-a]pyrimidin-4-one] |
| 124% | 7700 nM | CC(=O)c1c(C)ccc2nc(Cn3nc(C(F)(F)F)cc3Cl)cc(=O)n12 [Compound 50, 6-acetyl-2-[[5-chloro-3-(trifluoromethyl)pyrazol-1-yl]methyl]-7-methyl-pyrido[1,2-a]pyrimidin-4-one] |
| 114% | 9100 nM | CC(=O)c1c(C)ccc2nc(Cn3nc(Cl)cc3C(F)(F)F)cc(=O)n12 [Compound 51, 6-acetyl-2-[[3-chloro-5-(trifluoromethyl)pyrazol-1-yl]methyl]-7-methyl-pyrido[1,2-a]pyrimidin-4-one] |
| 120% | 79 nM | COc1ccc2nc(Cn3nc(C(F)(F)F)cc3Cl)cc(=O)n2c1[C@@H]1C[C@H]1C#N [Compound 52, (1R,2R)-2-[2-[[5-chloro-3-(trifluoromethyl)pyrazol-1-yl]methyl]-7-methoxy-4-oxo-pyrido[1,2-a]pyrimidin-6-yl]cyclopropanecarbonitrile] |
| 100% | – | COc1ccc2nc(Cn3nc(C(F)(F)F)cc3Cl)cc(=O)n2c1[C@H]1C[C@@H]1C#N [Compound 53, (1S,2S)-2-[2-[[5-chloro-3-(trifluoromethyl)pyrazol-1-yl]methyl]-7-methoxy-4-oxo-pyrido[1,2-a]pyrimidin-6-yl]cyclopropanecarbonitrile] |
| 150% | 24700 nM | O=c1cc(Cn2nc(C(F)(F)F)cc2Cl)nc2cc(C(F)(F)F)cc(Cl)n12 [Compound 54, 6-chloro-2-[[5-chloro-3-(trifluoromethyl)pyrazol-1-yl]methyl]-8-(trifluoromethyl)pyrido[1,2-a]pyrimidin-4-one] |
| 116% | 102 nM | COc1ccc2nc(Cn3nc(Cl)cc3Cl)cc(=O)n2c1C1CC1C (stereo not shown) [Compound 55, 2-((3,5-dichloro-1H-pyrazol-1-yl)methyl)-7-methoxy-6-(2-methylcyclopropyl)-4H-pyrido[1,2-a]pyrimidin-4-one] |
| 142% | 123 nM | N#C[C@@H]1C[C@H]1c1cc(C(F)(F)F)cc2nc(Cn3nc(C(F)(F)F)cc3Cl)cc(=O)n12 [Compound 56, (1R,2R)-2-(2-((5-chloro-3-(trifluoromethyl)-1H-pyrazol-1-yl)methyl)-4-oxo-8-(trifluoromethyl)-4H-pyrido[1,2-a]pyrimidin-6-yl)cyclopropanecarbonitrile] |
| 154% | 222 nM | Cc1cc([C@@H]2C[C@H]2C#N)n2c(=O)cc(Cn3nc(Cl)cc3Cl)nc2c1 [Compound 57, (1R,2R)-2-(2-((3,5-dichloro-1H-pyrazol-1-yl)methyl)-8-methyl-4-oxo-4H-pyrido[1,2-a]pyrimidin-6-yl)cyclopropanecarbonitrile] |
